Assay results: patent publication US8211463B2, “Use of glycolipids as adjuvants” (Helmholtz-Zentrum Fuer Infektionsforschung GmbH, priority 2006, dated 2012)
Entries after “also recorded” stand apart in the source; their conditions may differ.

What was measured:
[1] = system: spleen cells of immunized mice; test: Splenocyte proliferation ([3H]thymidine incorporation) after in vitro restimulation with β-Gal; format: in vivo, Balb/c mice; conditions: i.n.
Description: (§1) Co-administration of β-Gal with 10 μg glycolipids 1, 5 and 6 induced a strong cellular immune responses against the β-Gal antigen in Balb/c mice. Balb/c mice were immunized by the i.n. or s.c. route with β-Gal alone or together with glycolipids 1, 5 and 6 three times at 2-wk intervals. 10 days after the final immunization, the immunized mice were sacrificed. Splenocytes of mice immunized by the i.n. (A) and s.c. (B) route were collected and cultured with different concentrations of the β-Gal-Protein for 4 days. […] Curves represent [^3H]thymidine incorporation (counts per minute, cpm) and Stimulation index (SI) in each group. Each group consists of five mice. Data are representative of three separate experiments.
as §1, with “with 20 up to 30” for “with 10”, “glycolipids” for “glycolipids 1,”, “represent [3H]thymidine incorpoaration” for “represent [^3H]thymidine incorporation”
Experimental protocol: Spleens were removed and pooled for analysis of cellular immune responses. Cells were grown in RPMI 1640 supplemented with 10% fetal calf serum, 100 U/ml of penicillin, 50 μg/ml of streptomycin, 5×10^−5 M 2-mercaptoethanol and 1 mM L-glutamine (GIBCO BRL, Karlsruhe, Germany) and maintained at 37° C. in a humidified 5% CO2 atmosphere. Spleen cell suspensions were adjusted to 5×10^6 cells/ml in complete medium, cells were seeded with 100 μl per well in a flat-bottomed 96-well microtiter plate (Nunc) and plates were incubated for 4 days. Unstimulated spleen cells were incubated in the presence of different concentrations of the new adjuvants to analyze the in vitro stimulation capacity of glycolipids 1, 5 or 6, respectively. T cellmediated immune responses were investigated at day 38 by measuring the proliferation of cells recovered from spleens after in vitro restimulation with β-Gal. Said spleen cells were obtained from vaccinated mice—said mice where immunized as described in Example 2—and incubated in the presence of different concentrations of the soluble β-Gal antigen. Each concentration was tested in triplicates. During the final 18 h of culture, 1 μCi of [^3H]thymidine (Amersham International, Freiburg, Germany) was added to each well. Cells were then harvested on paper filters (Filtermat A; Wallac, Freiburg, Germany) by using a cell harvester (Inotech, Wohlen, Switzerland), and the amount of incorporated [^3H]thymidine into the DNA of proliferating cells was determined by a β-scintillation counter (Wallac 1450, Micro-Trilux). The results are expressed as the arithmetic mean of [^3H]thymidine uptake in cpm.

[2] = Tolerability of co-administered glycolipids: body weight and behaviour tested daily; format: in vivo
Description: The body weight and the behaviour of the animals were tested daily. The Balb/c mice were immunized by the mucosal (i.n.) or parenteral (s.c.) route with β-Gal alone or together with glycolipids 1, 5 and 6 three times at 2-wk intervals (day 1, 14 and 28). 10 days after the final immunization (day 38), the immunized mice were sacrificed.
Experimental protocol: six-eight weeks-old female BALB/c (H-2d) mice were purchased from Harlan Winkelmann GmbH (Borchen, Germany) and treated in accordance with local and European Community guidelines. Groups of 5 mice each were immunized on day 01, 14 and 28 with 30 μg of β-Gal (Boehringer, Mannheim, Germany), alone or with 10 μg of glycolipids 1, 5, or 6, respectively, see FIG. 2. For intranasal (i.n.) immunization, 10 μl were applied to each naris, whereas for the s.c. injection β-Gal with or without glycolipids 1, 5 or 6, respectively, was resuspended in a volume of 50 μl PBS per animal. Serum samples were collected at day 38 after immunization and stored at −20° C. prior to determination of β-Gal-specific antibodies. 96-well Nunc-Immuno MaxiSorp assay plates (Nunc, Roskilde, Denmark) were coated with 100 μl of β-Gal (Boehringer, Mannheim, Germany) at 5 μg/ml in 0.05 M carbonate buffer (pH 8.2) per well. Serial two-fold dilutions of sera or lavages in PBS with 1% BSA and 0.05% Tween 20 were added (100 μl/well), and plates incubated for 16 h at 37° C. After washing, biotinylated γ-chain-specific goat anti-mouse IgG (Sigma Chemie, Deisenhofen, Germany) was added, and plates were incubated for an additional 1 h at 37° C. After four washes, 100 μl of peroxidase-conjugated streptavidin (Pharmingen) was added to cells and plates incubated at 37° C. for 30 min. After four washes, reactions were developed with ABTS in 0.1 M citrate-phosphate buffer (pH 4.35) containing 0.01% H2O2.

[3] = system: β-Gal-specific mucosal S-IgA; test: β-Gal-specific secretory IgA in bronchial alveolar and vaginal lavages after i.n. immunisation; format: in vivo, Balb/c mice; conditions: for expression of β-Gal-specific S-IgA titers (lavage not named, FIG. 6): 20 up to 30 μg glycolipid, probably vaginal lavage
Description: Co-administration of β-Gal with 10 μg glycolipids 1, 5 and 6 induced β-Gal-specific mucosal S-IgA responses in Balb/c mice. Balb/c mice were immunized by the i.n. or s.c. route with β-Gal alone or together with glycolipids 1, 5 and 6 three times at 2-wk intervals. 10 days after the final immunization, the immunized mice were sacrificed. β-Gal-specific S-IgA titers were determined in vaginal lavage (VL) and Bronchial alveolar lavage (BAL) of mice immunized with β-Gal co-administered with glycolipids 1, 5 and 6 by the intranasal route. […] Bars represent mean Ab titer or amount±SE in each group. Each group consists of five mice. Data are representative of three separate experiments.
Co-administration of β-Gal with 20 up to 30 μg glycolipids 5 and 6 induced β-Gal-specific mucosal S-IgA responses in Balb/c mice. Balb/c mice were immunized by the i.n. or s.c. route with β-Gal alone or together with glycolipids 5 and 6 three times at 2-wk intervals. 10 days after the final immunization, the immunized mice were sacrificed. β-Gal-specific S-IgA titers were determined in vaginal lavage (VL) and Bronchial alveolar lavage (BAL) of mice immunized with β-Gal co-administered with glycolipids 5 and 6 by the intranasal route.
Experimental protocol: at day 38, mice were sacrificed and the final sampling was performed. Vaginal and lung lavages were obtained by flushing the organs with 1 ml of PBS supplemented with 50 mM EDTA, 0.1% BSA, and 10 mM PMSF. Lavages were then centrifuged to remove debris (10 min at 3000×g), and supernatant fluids were stored at −20° C. To determine the concentration of total IgA present in the lung and vaginal lavages, serial dilutions of the corresponding samples were incubated in microtiter plates that were previously coated with goat anti-mouse IgA (Sigma Chemie), as capture antibodies (100 μl/well). Serial dilutions of purified mouse IgA (Sigma Chemie) were used to generate a standard curve.

[4] = 10 μg glycolipid, restimulation with β-Gal for 4 days
[5] = 10 μg glycolipid + 30 μg β-Gal, day 38
[6] = co-administered with 30 μg β-Gal, i.n. and s.c., day 1, 14 and 28
[7] = 20 up to 30 μg glycolipid + 30 μg β-Gal, day 38

SMILES: CCCCCCCC/C=C\CCCCCCCCOCC(COCCCCCCCC/C=C\CCCCCCCC)O[C@@H]1O[C@H](CO)[C@@H](O[C@H]2O[C@H](CO)[C@@H](O)[C@H](O)[C@H]2O)[C@H](O)[C@H]1O (relative stereo) [glycolipid 1, 1,3-Di-O[cis-9-octadecenyl]-2-O-[4′-O-(α-D-glycopyranosyl)-β-D-glycopyranosyl]-sn-glycerol]
- Stimulation index (SI), [3H]thymidine incorporation of spleen cells [1, 4]: no effect
- toxic side effects (body weight and behaviour) ([2]; mouse, in vivo, sc): no toxic side effects; also recorded: no toxic side effects or changes in their behaviour
- β-Galactosidase-specific sIgA titer in bronchial alveolar lavage (BAL) [3, 5]: below the detection level

SMILES: CCCCCCCCCCCCCCOCC(COCCCCCCCCCCCCCC)O[C@@H]1O[C@H](CO)[C@@H](O[C@H]2O[C@H](CO)[C@@H](O)[C@H](O)[C@H]2O)[C@H](O)[C@H]1O [glycolipid 5, 1,3-Di-O-tetradecyl-2-O-[4′-O-(α-D-glucopyranosyl)-β-D-glucopyranosyl]-sn-glycerol]
- toxic side effects (body weight and behaviour) [2, 6]: no toxic side effects; also recorded: no toxic side effects or changes in their behaviour
- β-Galactosidase-specific sIgA in vaginal lavages [3, 5]: enhanced
- β-Galactosidase-specific sIgA titer in bronchial alveolar lavage (BAL) [3, 5]: > 1/130 and significant increase
- β-Galactosidase-specific sIgA titer in bronchial alveolar lavage (BAL) [3, 7]: > 1/170 and significant increase
- expression of β-Gal-specific S-IgA titers (lavage not named, FIG. 6) [3]: comparable with titer of the control groups

SMILES: CCCCCCCCCCCCCCOCC(COCCCCCCCCCCCCCC)O[C@@H]1O[C@H](CO[C@H]2O[C@H](CO)[C@H](O)[C@H](O)[C@H]2O)[C@@H](O)[C@H](O)[C@H]1O [glycolipid 6, 1,3-di-O-tetradecyl-2-O-[6′-O-(α-D-galactopyranosyl)-β-D-glucopyranosyl]-sn-glycerol]
- Stimulation index (SI), [3H]thymidine incorporation of spleen cells [1, 4]: no effect
- Stimulation index (SI), [3H]thymidine incorporation of spleen cells ([1]; 20 up to 30 μg glycolipid, restimulation with β-Gal for 4 days): strong responses
- Stimulation index (SI), [3H]thymidine incorporation of spleen cells ([1]; highest concentration (30 μg per animal)): > 3
- toxic side effects (body weight and behaviour) [2, 6]: no toxic side effects; also recorded: no toxic side effects or changes in their behaviour
- β-Galactosidase-specific sIgA titer in bronchial alveolar lavage (BAL) [3, 5]: below the detection level
- β-Galactosidase-specific sIgA titer in bronchial alveolar lavage (BAL) [3, 7]: comparable sIgA titers in BAL; also recorded: significant increase
- expression of β-Gal-specific S-IgA titers (lavage not named, FIG. 6) [3]: comparable with titer of the control groups
